The record followed here is US6337410B2, “Antibiotic TKR459, production method, and microorganism” (Takara Shuzo Co., Ltd., priority 1996, dated 2002).

The structures appear in SMILES notation. In brackets after ≈: the same amount, converted by molar mass. Read-outs that look alike come from different tables or passages of the source.

One data set can be described thus: Solubility in solvents. It counts as physicochemical.
The subject of another data set is ICR mice. Nature of the data set: Toxicity after intraperitoneal administration to ICR mice. The format is in vivo. Particulars: 100 mg/kg.
Data set [1] relates to Candida albicans TIMM0136. Nature of the data set: Antimicrobial spectrum, liquid medium dilution method. The format is cell-based. As to the method: (§1) The TKR459 obtained was used to determine antimicrobial spectra against various microorganisms. The minimal inhibitory concentration (μg/ml) was measured by the liquid medium dilution method as the minimal concentration causing a substantially complete inhibition of micobial growth. The sub-minimal inhibitory concentration (μg/ml) was determined as the minimal concentration causing a partial inhibition of micobial growth and shown in the parentheses of Table 2. In the table, YNBG stands for a medium comprising 0.67% of yeast nitrogen base (manufactured by Difco) and 1.0% of glucose.

The subject of data set [2] is Cryptococcus neoformans TIMM0354. The description is as above. The format is cell-based. As to the method:
as §1

Another data set deals with Candida kefyr TIMM0301. Described as above. It counts as cell-based. The following applies: for MIC: Kluyveromyces marxianus, Candida kefyr TIMM0301, YNBG medium. As to the method:
as §1

`CC(O)(CCCCCCCCCCCCCC1OC(O)C(N)C(O)C1O)CCC(=O)O` (stereo not drawn) [TKR459]: in the data set “Solubility in solvents” (chloroform), the Solubility in chloroform result is recorded as “sparingly soluble”. Besides, the Solubility in hexane entry in “Solubility in solvents” (hexane) is “sparingly soluble”. Further, the Solubility in methanol result in “Solubility in solvents” (methanol) is “soluble”. Moreover, the Solubility in water entry in “Solubility in solvents” (water) is on record as “soluble”. Besides, the Toxic signs entry with ICR mice is recorded as “no toxic signs”. Moreover, the MIC in data set [1] (Candida albicans TIMM0136, YNBG medium, substantially complete inhibition of growth, read-out: Minimal inhibitory concentration) came to 0.78 µg/mL (≈ 1.74 µM); in data set [2] (Cryptococcus neoformans TIMM0354, YNBG medium, substantially complete inhibition of growth, read-out: Minimal inhibitory concentration), 3.13 µg/mL (≈ 6.99 µM); with Candida kefyr TIMM0301 (minimal concentration causing partial inhibition of growth, read-out: Sub-minimal inhibitory concentration (in parentheses)) it was 0.39 µg/mL (≈ 0.871 µM); in the data set on Candida kefyr TIMM0301 (substantially complete inhibition of growth, read-out: Minimal inhibitory concentration), 0.78 µg/mL (≈ 1.74 µM). For the same compound, the Antifungal activity entry in data set [1] (Candida albicans, summary of Table 2) is listed as “active”; in data set [2] (Cryptococcus neoformans, summary of Table 2), “active”; in the data set with Candida kefyr TIMM0301 (Candida kefyr, summary of Table 2), “active”.
